Reference: US10752612B2, “PLK4 inhibitors” (LUDWIG INSTITUTE FOR CANCER RESEARCH LTD, priority 2015, dated 2020)
pIC50: −log10 of the molar value.

Biological target: T1, human Plk4 kinase domain (aa 2-275) (Homo sapiens, UniProt O00444)
T1 construct: purified 6×His-tagged human Plk4 kinase domain (aa 2-275); 6xHis; made in house; host or cells: E. coli
T1 sequence (O00444 2-275): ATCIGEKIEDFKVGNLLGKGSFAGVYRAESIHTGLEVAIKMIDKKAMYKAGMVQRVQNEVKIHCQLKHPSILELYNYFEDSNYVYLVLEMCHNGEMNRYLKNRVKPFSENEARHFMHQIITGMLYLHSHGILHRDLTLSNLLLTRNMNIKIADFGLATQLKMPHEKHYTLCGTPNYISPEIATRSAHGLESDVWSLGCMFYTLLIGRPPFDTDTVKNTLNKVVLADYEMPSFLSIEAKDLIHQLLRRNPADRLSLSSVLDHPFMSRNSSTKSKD
Assay: Plk4 kinase assay (ADP-Glo)
Format: biochemical
Settings: Table 1
In short: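 Enzyme at 2.5-10 nM final, pH 8.0, reacted 4-16 hours at 25° C; ADP generation read by ADP-Glo luminescence. Ki derived from IC50 by Cheng-Prusoff or, for tight binders, Copeland formalism.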

SMILES	pIC50
COc1c(Nc2cc(C)[nH]n2)nc(Sc2ccc(S(=O)(=O)Cc3cccc([N+](=O)[O-])c3Cl)cc2)nc1N1CCN(CCN(C)C)CC1	> 6.00
COc1c(Nc2cc(C)[nH]n2)nc(Sc2ccc(S(=O)(=O)Cc3cccc([N+](=O)[O-])c3F)cc2F)nc1N1CCN(CCN(C)C)CC1	> 6.00
COc1c(Nc2cc(C)[nH]n2)nc(Sc2ccc(S(=O)(=O)Cc3cccc([N+](=O)[O-])c3)cc2F)nc1N1CCOCC1	> 6.00
COc1c(Nc2cc(C)[nH]n2)nc(Sc2ccc(S(=O)(=O)Cc3cccc([N+](=O)[O-])c3)cc2F)nc1N1CCOC[C@@H]1C	> 6.00
COc1c(Nc2cc(C)[nH]n2)nc(Sc2ccc(S(=O)(=O)Cc3cccc([N+](=O)[O-])c3C#N)cc2)nc1N1CCN(CCN(C)C)CC1	> 6.00
COc1c(Nc2cc(C)[nH]n2)nc(Sc2ccc(S(=O)(=O)Cc3cccc([N+](=O)[O-])c3)cc2)nc1N1C2CCC1COC2	> 6.00
COc1c(Nc2cc(C)[nH]n2)nc(Sc2ccc(S(C)(=O)=O)cc2F)nc1N1CCN(CCN(C)C)CC1	> 6.00
COc1c(Nc2cc(C)[nH]n2)nc(Sc2ccc(S(=O)(=O)Cc3cccc([N+](=O)[O-])c3F)cc2F)nc1N1CCOC[C@H]1C	> 6.00
COc1c(Nc2cc(C)[nH]n2)nc(Sc2ccc(S(=O)(=O)Cc3cccc([N+](=O)[O-])c3)cc2F)nc1N1CCOC[C@H]1C	> 6.00
CCS(=O)(=O)c1ccc(Sc2nc(Nc3cc(C)[nH]n3)c(OC)c(N3CCC(CCN(C)C)CC3)n2)c(Cl)c1	> 6.00
CCS(=O)(=O)c1ccc(Sc2nc(Nc3cc(C)[nH]n3)c(OC)c(N3CCC(CCN(C)C)CC3)n2)c(F)c1	> 6.00
COc1c(Nc2cc(C)[nH]n2)nc(Sc2ccc(S(C)(=O)=O)cc2F)nc1N1CCOC[C@@H]1C	> 6.00
COc1c(Nc2cc(C)[nH]n2)nc(Sc2ccc(S(=O)(=O)Cc3cccc(F)c3F)cc2F)nc1N1CCCCC1	> 6.00
COc1c(Nc2cc(C)[nH]n2)nc(Sc2ccc(S(=O)(=O)Cc3cccc(F)c3F)cc2F)nc1N1CCOCC1	> 6.00
COc1c(Nc2cc(C)[nH]n2)nc(Sc2ccc(S(=O)(=O)Cc3cccc(F)c3F)cc2F)nc1N1CCOC[C@@H]1C	> 6.00
COc1c(Nc2cc(C)[nH]n2)nc(Sc2ccc(S(=O)(=O)Cc3cccc([N+](=O)[O-])c3F)cc2F)nc1N1CCOC[C@@H]1C	> 6.00
COc1c(Nc2cc(C)[nH]n2)nc(Sc2ccc(S(=O)(=O)Cc3cccc(Cl)c3F)cc2F)nc1N1CCOCC1	> 6.00
COc1c(Nc2cc(C)[nH]n2)nc(Sc2ccc(S(=O)(=O)Cc3cccc(Br)c3F)cc2F)nc1N1CCOCC1	> 6.00
COc1c(Nc2cc(C)[nH]n2)nc(Sc2ccc(S(=O)(=O)Cc3cccc(C(F)(F)F)c3F)cc2F)nc1N1CCOCC1	> 6.00

The remaining lines, values ahead:

pIC50	SMILES
> 6.00	COc1c(Nc2cc(C)[nH]n2)nc(Sc2ccc(S(=O)(=O)Cc3cc(F)cc([N+](=O)[O-])c3)cc2)nc1N1CCN(CCN(C)C)CC1
> 6.00	COc1c(Nc2cc(C)[nH]n2)nc(Sc2ccc(S(=O)(=O)Cc3cccc([N+](=O)[O-])c3F)cc2)nc1N1CCC(O)CC1
> 6.00	COc1c(Nc2cc(C)[nH]n2)nc(Sc2ccc(S(=O)(=O)Cc3cccc([N+](=O)[O-])c3O)cc2)nc1N1CCN(CCN(C)C)CC1
> 6.00	COc1c(Nc2cc(C)[nH]n2)nc(Sc2ccc(S(C)(=O)=O)cc2F)nc1N1CCC(CCN(C)C)CC1
> 6.00	COc1c(Nc2cc(C)[nH]n2)nc(Sc2ccc(S(C)(=O)=O)cc2Cl)nc1N1CCN(CCN(C)C)CC1
> 6.00	COc1c(Nc2cc(C)[nH]n2)nc(Sc2ccc(S(C)(=O)=O)cc2Cl)nc1N1CCC(CCN(C)C)CC1
> 6.00	CCS(=O)(=O)c1ccc(Sc2nc(Nc3cc(C)[nH]n3)c(OC)c(N3CCOCC3)n2)c(Cl)c1
> 6.00	CCS(=O)(=O)c1ccc(Sc2nc(Nc3cc(C)[nH]n3)c(OC)c(N3CCN(CCN(C)C)CC3)n2)c(Cl)c1
> 6.00	CCS(=O)(=O)c1ccc(Sc2nc(Nc3cc(C)[nH]n3)c(OC)c(N3CCN(C)CC3)n2)c(Cl)c1
> 6.00	CCS(=O)(=O)c1ccc(Sc2nc(Nc3cc(C)[nH]n3)c(OC)c(N3CCN(CCN(C)C)CC3)n2)c(F)c1
> 6.00	CCS(=O)(=O)c1ccc(Sc2nc(Nc3cc(C)[nH]n3)c(OC)c(N3CCOC[C@@H]3C)n2)c(Cl)c1
> 6.00	COc1c(Nc2cc(C)[nH]n2)nc(Sc2ccc(S(=O)(=O)Cc3cccc(F)c3F)cc2F)nc1N1CCN(CCN(C)C)CC1
> 6.00	COc1c(Nc2cc(C)[nH]n2)nc(Sc2ccc(S(=O)(=O)Cc3c(F)ccc(F)c3F)cc2F)nc1N1CCN(CCN(C)C)CC1
> 6.00	COc1c(Nc2cc(C)[nH]n2)nc(Sc2ccc(S(=O)(=O)Cc3cccc([N+](=O)[O-])c3)cc2)nc1N1CCOC[C@@H]1CO
> 6.00	COc1c(Nc2cc(C)[nH]n2)nc(Sc2ccc(S(=O)(=O)Cc3c(F)c(F)cc(F)c3F)cc2F)nc1N1CCOCC1
